Data as given in patent publication US11786555B2, “RAR selective agonists in combination with immune modulators for cancer immunotherapy” (IO THERAPEUTICS, INC., priority 2017, dated 2023).

What was measured:
[1] = system: H929 cells and CD138+ primary MM cells; test: qRT-PCR of B cell and PC markers in MM cells, liquid or BM stroma co-culture; assay type: cell-based, human
Protocol: FIG. 3A-H depicts the relative concentration of plasma markers BCL6 (FIG. 3A and E), BLIMP-1 (FIG. 3B and F), XBPS-1 (FIG. 3C and G), and CHOP (FIG. 3D and H) in multiple myeloma (MM) cell lines H929 (FIG. 3A-D) or CD138+ MM cells from three different patient samples (FIG. 3E-H) incubated for 5 days either in the absence of stroma (Liquid), with or without AGN (RA receptor antagonist AGN194310, 1 μM), or co-cultured with BM mesenchymal cells (Stroma), with or without R115 (CYP26 inhibitor R115866, 1 μM) or IRX (CYP26-resistant retinoid IRX5183, 1 μM). Expression in untreated liquid conditions was set at 1. Data are representative of 3 independent experiments with similar results and represent the mean ±SEM. *P≤0.05 and **P≤0.01, by repeated-measures 1-way ANOVA for determination of statistical significance between groups; P values were corrected for multiple comparisons using Dunnett's test. Ctrl, control; max, maximum.
(§1) Coculture experiments. 24-well plates were coated with 0.1% gelatin in PBS for 30 min at 37° C. The gelatin solution was removed, and the stromal cells were cultured overnight at a density of 5×10^4 cells/well to obtain a confluent monolayer. At that time, MM cell lines or primary MM cells (1×10^5 in 2 ml) were added to the stroma cultures. The stroma cocultures were incubated at 37° C. in RPMI containing 10% FCS, L-glutamine, and P/S, with or without AGN194310 (1 μM for 5 days), R115866 (1 μM for 5 days), IRX5183 (1 μM for 5 days), or BTZ (2.5 nM for 48 hr).
qRT-PCR. Total RNA was extracted using the RNeasy Mini Kit (QIAGEN) according to the manufacturer's instructions. cDNA was synthesized by reverse transcription using the iScript cDNA Synthesis Kit (Bio-Rad). qRT-PCR was performed with iTaq SYBR Green Supermix (Bio-Rad) using sequence specific primers. Gene expression was normalized to GAPDH, and relative quantification was calculated using ΔΔCt. All experiments were performed in duplicate and run on the Bio-Rad CFX96 machine.
The BM microenvironment (also called “niche”) limits PC differentiation by modulating retinoid signaling. A population of MM progenitors, phenotypically similar to B cells, is intrinsically resistant to BTZ and contributes to MRD and relapse. To investigate whether the BM niche plays a role in determining the phenotype of MM cells, the mRNA expression of B cell and PC markers in MM H929 cell lines (FIG. 3A-D) and MM CD138+ primary cells (FIG. 3E-H) was analyzed following co-culture with mouse BM stroma using human-specific primers. […] In contrast, co-culture of MM cells with BM stroma decreased the mRNA expression of B lymphocyte-induced maturation protein 1 (BLIMP1) and spliced X box-binding protein 1 (XBP1s) (FIG. 3B, C, F, G), which are critical mediators of PC differentiation.
The BM niche regulates hematopoietic stem cell (HSC) differentiation by expressing the retinoid-inactivating enzyme CYP26. CYP26 enzymes were highly expressed in BM mesenchymal cells, while their expression was barely detectable in MM cells. Since retinoid signaling promotes PC differentiation and potentiates Ig secretion, it was determined whether stromal CYP26 is responsible for inducing a B cell phenotype in MM cells. To this end, co-culture conditions were treated with the CYP26 inhibitor R115866 (R115) or the CYP26-resistant RA receptor α-selective (RARα-selective) retinoid IRX5183 (IRX).

[2] = system: H929 cells and primary CD138+ MM cells; test: clonogenic or cellular recovery of MM cells after BTZ treatment; assay type: cell-based, human; conditions: stroma co-culture, 1 μM for 5 days, then BTZ 2.5 nM
Protocol: FIG. 4A-B depicts the clonogenic recovery (CFU) of H929 cells (FIG. 4A) or cellular recovery of primary CD138+ MM cells from 3 different patient samples (FIG. 4B). MM cells were treated with bortezomib (BTZ; 2.5 nM) for 48 hours after being incubated for 5 days either in the absence of stroma (Liquid), with or without the pan-RAR inhibitor AGN (1 μM), or in the presence of BM mesenchymal cells (Stroma), with or without the CYP26 inhibitor R115 (1 μM) or the CYP26-resistant retinoid IRX (1 μM). Clonogenic or cellular recovery was normalized to each condition in the absence of BTZ.
as §1
Clonogenic assays. After treatment, MM cells were collected, washed with PBS, and plated at a density of 5,000 cells/ml in 1 ml of 1.32% methylcellulose supplemented with 30% FBS, 10% BSA, L-glutamine, P/S, and 0.1 mM β-ME. Cells were plated in triplicate in 35-mm culture dishes, incubated at 37° C., and scored for the presence of colonies 14 days later.
A RA-low microenvironment induces BTZ resistance. To determine whether decreased retinoid signaling contributes to BTZ resistance within the BM niche, MM cell lines and MM CD138+ primary cells were incubated with BM stroma for 5 days, followed by BTZ treatment.

[3] = system: H929 Luc+ cells; test: systemic MM xenograft, bioluminescence; assay type: in vivo, mouse; conditions: 4 weeks
Protocol: FIG. 6 depicts bioluminescent images of systemic MM xenografts. Following engraftment of H929 Luc+ cells, mice were treated with IRX (n=4), BTZ (n=5), or a combination of both (n=5) for 4 weeks. Data represent the mean±SEM of the fold change in bioluminescence (photons/second) from day 0.
For the systemic MM model, 2×10^6 Luc+/GFP+ H929 cells were injected via the tail vein into 16-week-old male NSG mice. After engraftment, as determined by an exponential increase in bioluminescence, mice were treated with BTZ (0.5 mg/kg i.p.) twice weekly and with IRX (10 mg/kg) once daily. Tumor burden was assessed by bioluminescence, as above.
To test whether retinoids can enhance BTZ activity in MM, a systemic MM xenograft was developed by injecting 2×10^6 H929 luciferase+ (Luc+) cells via the tail vein of non-obese, diabetic, severe combined immunodeficiency IL-2 receptor y-KO (NSG) mice. The animals were randomized to receive IRX, BTZ, or a combination of both, and disease burden was followed weekly by bioluminescence imaging (FIG. 6).

SMILES: CC1(C)CCC(C)(C)c2c1cc(C(=O)Nc1cc(F)c(C(=O)O)c(F)c1)c(O)c2Cl [IRX5183]
- expression of differentiation markers by qRT-PCR or flow cytometry ([1]; liquid conditions compared with BM stroma): induced comparable changes, irrespective of the presence or absence of BM stroma
- mRNA expression of B cell and PC markers (BCL6, BLIMP1, XBP1s, CHOP) ([1]; stroma co-cultures, 1 μM for 5 days): restored all markers to levels comparable to those of liquid control conditions
- effect on stroma-induced BTZ resistance [2]: overcome
- disease burden (bioluminescence) ([3]; combination of IRX 10 mg/kg daily and BTZ 0.5 mg/kg twice weekly): significant (P<0.01) decrease in disease burden
- tumor burden (bioluminescence) ([3]; monotherapy, BTZ 0.5 mg/kg i.p. twice weekly, IRX 10 mg/kg once daily): decrease in tumor burden compared with untreated mice
